From publication PMC8960591, “PCSK9 acts as a key regulator of Aβ clearance across the blood–brain barrier” (Cellular and Molecular Life Sciences: CMLS, 2022)

Assays:
[1] = system: 5xFAD mice; test: Immunoblot of liver lysates, serum, capillary-depleted brain fractions and CSF; type: in vivo, mouse; conditions: 6-month-old 5xFAD mice, 1 µg/g Alirocumab for 10 weeks vs 0.9% NaCl
Experimental: (§1) 14-weeks-old female 5xFAD transgenic or wildtype littermates were randomized into groups with similar average body weights (18–20 g), respectively. 1 µg/g Alirocumab (Sanofi), Evolocumab (Amgen), or non-specific human IgG2 control antibody (Bio X Cell) in 0.9% isotonic saline solution (BBraun) or the analogous volume of pure 0.9% isotonic saline solution were weekly i.p. injected for a period of 10 weeks. 7 days before starting the injection procedure LRP1^BE−/− was induced by i.p. injection of 75 µg/g tamoxifen (Sigma-Aldrich) for 5 consecutive days and maintained with chow containing 400 mg/kg tamoxifen citrate (LASvendi). […]
Protein concentrations were determined using the Pierce™ BCA Protein Assay Kit (Thermo Fisher Scientific) according to the manufacturer’s protocol. […]
Fig. 3 Systemic PCSK9 inhibition increases peripheral LRP1 level. A Liver lysates, B serum, as well as C capillary-depleted brain fractions and D CSF samples of 6-month-old 5xFAD mice, treated repetitively with A–C 1 µg/g Alirocumab or D Evolocumab in comparison to A–C 0.9% NaCl or D non-specific human control IgG2 for 10 weeks were evaluated via immunoblot analyses for LRP1 (full length, α-chain, β-chain), LDL receptor, human as well as mouse IgG, and ApoE, and representatively presented. […]

[2] = system: 5xFAD mice; test: Plaque load quantification by immunofluorescence; type: in vivo, mouse; conditions: 6-month-old 5xFAD mice, 1 µg/g Alirocumab for 10 weeks vs 0.9% NaCl, plaques ≥ 80 µm2, mean
Experimental: as §1
Mice were transcardially perfused with ice-cold PBS followed by 4% Roti®-Histofix (Roth). […] Within one hemisphere 12 sections were analyzed; 6 representatives for prefrontal cortex (corresponding to bregma from 0.86 to + 0.62 mm) and 6 for the hippocampus (corresponding to bregma from − 1.82 to − 2.06 mm). Plaque load (aggregates ≥ 80 µm^2) was quantified using the NIH ImageJ 1.52 software as described previously.
Fig. 5 Aβ plaque load of prefrontal cortex and hippocampus is reduced due to systemic PCSK9 inhibition. A Prefrontal cortex and B hippocampus of 6-month-old 5xFAD mice treated with 1 µg/g alirocumab or 0.9% NaCl for ten weeks were quantified for amyloid plaques. […]

[3] = system: 5xFAD mice; test: Brain Aβ1–40 and Aβ1–42 ELISA of soluble and insoluble brain fractions after repetitive anti-PCSK9 antibody injection; type: in vivo, mouse; conditions: n = 4–14 per group
Experimental: (§2) 14-weeks-old female 5xFAD transgenic or wildtype littermates were randomized into groups with similar average body weights (18–20 g), respectively. 1 µg/g Alirocumab (Sanofi), Evolocumab (Amgen), or non-specific human IgG2 control antibody (Bio X Cell) in 0.9% isotonic saline solution (BBraun) or the analogous volume of pure 0.9% isotonic saline solution were weekly i.p. injected for a period of 10 weeks. 7 days before starting the injection procedure LRP1^BE−/− was induced by i.p. injection of 75 µg/g tamoxifen (Sigma-Aldrich) for 5 consecutive days and maintained with chow containing 400 mg/kg tamoxifen citrate (LASvendi). To sacrifice animals, mice were anesthetized with 100 µg/g ketamine (Pfizer) in combination with 10 µg/g xylazine (Bayer HealthCare) and euthanized by cervical dislocation.
Extracted blood was supplemented with an EDTA-free protease inhibitor cocktail (Roche Applied Science) and allowed to clot at room temperature for 10 min. Liver were weighed and homogenized in 3 ml/g fresh cold tissue lysis buffer [50 mmol/l Tris (pH 7.4), 150 mmol/l NaCl, 0.1% (w/v) SDS, 1% (v/v) Nonidet P-40, 0.5% (w/v) sodium deoxycholate, 1 mmol/l EDTA (pH 7.4)] containing an EDTA-free protease inhibitor cocktail using the Precellys Lysing Kit (Bertin instruments). Extracts were purified for 3 min (18,620 rcf, 4 °C). CSF samples were isolated via puncture of cisterna magna as described previously and purified for 10 min (1000 rcf, 4 °C). Brains were weighed and soluble and insoluble brain fractions sequential extracted. Initially, homogenization by a glass homogenizer occurred in 6 ml/g PBS, containing an EDTA-free protease inhibitor cocktail and 1 mmol/l EDTA (pH 7.4). The homogenate was centrifuged for 20 min (131,700 rcf, 4 °C) and the supernatant (soluble brain fraction) isolated. Subsequently, the brain pellet was homogenized in 4 ml/g PBS containing 2% (v/v) SDS using the Precellys Lysing Kit. Centrifugation was repeated and the supernatant (insoluble brain fraction) collected. The preparation of capillary-depleted brain fractions based on an established protocol. Briefly, brains were weighed, homogenized by a glass homogenizer in 6 ml/g PBS, and centrifuged for 5 min (1350 rcf, 4 °C). The pellet was resuspended in 3 ml/g PBS, containing 18% dextran (~ 70,000 g/mol; Roth), vortexed thoroughly for 1 min, and centrifuged for 10 min (4863 rcf, 4 °C). Subsequently, the supernatant (capillary-free brain fraction) was transferred, mixed thoroughly with 3 ml/g PBS, and centrifuged for 5 min (1350 rcf, 4 °C). The brain parenchymal pellet was lysed for 20 min using tissue lysis buffer containing an EDTA-free protease inhibitor cocktail and 1 mmol/l EDTA (pH 7.4) and purified for 20 min (18,620 rcf, 4 °C). Each isolated sample was snap frozen via liquid nitrogen and stored at − 80 °C.
The levels of Aβ1–40 and Aβ1–42 in soluble and insoluble brain fractions were blindly determined using Human Amyloid β (FL) Assay Kits (Immuno-Biological Laboratories) according to the manufacturer’s protocol.
Fig. 4 Peripheral PCSK9 inhibition reduces overall Aβ burden. […] Lanes were run on the same gel but were noncontinuous. Aβ1–40 and Aβ1–42 signals were verified by loading peptide standards. Data represent mean ± SEM of n = 4–14 mice per group. For statistical analyses one-way ANOVA followed by Tukey’s multiple comparison test was used (*p < 0.05; **p < 0.01)

[4] = system: 5xFAD mice; test: Fear conditioning (contextual and cued fear response, behaviour in training phase); type: in vivo, mouse; conditions: n = 8–13 per group
Experimental: as §2
24-week-old female 5xFAD mice LRP1^BEfl/fl or LRP1^BE−/− and wildtype age-matched female littermates treated as described earlier were assessed for contextual and cued fear response adapted to previous studies, using the computerized TSE Multi Conditioning System (TSE GmbH). Movement was assessed by high-resolution infrared sensors (100 Hz) in three dimensions (14 mm distant) and documented by the FCS software. In the training phase, mice were placed in the conditioning chamber for 3 min, followed by a 30-s tone application (72 dB, 9 kHz). During the last 2 s, the tone was accompanied by shock delivery (0.7 mA). Contextual memory testing was performed 24 h-post conditioning, confronting the animals 3 min to the training context without tone application. Cued memory was assessed 2 h later, by pre-exposing the animals 3 min to a non-conditioned context, followed by a tone application for 60 s according to the training session. Freezing behavior (the absence of all but respiratory movements ≥ 2 s), motoric abilities, environmental behavior (% of explored area), and activity (≥ 30 mm/s)/hyperactivity (≥ 200 mm/s) levels were recorded automatically.
Fig. 6 Peripheral PCSK9 inhibition improves contextual memory formation of 5xFAD transgenic mice in a Fear Conditioning paradigm. 6-month-old 5xFAD mice treated with 1 µg/g Alirocumab or 0.9% NaCl for 10 weeks were analyzed for A hippocampus-dependent contextual fear response and B hippocampus-independent cued fear response in comparison to wildtype and LRP1^BE−/− littermates. […] Higher freezing behavior percentage indicates stronger memory formation. Data represent mean ± SEM of n = 8–13 mice per group. For statistical analyses one-way ANOVA followed by Tukey’s multiple comparison test was used (*p < 0.05; **p < 0.01)

[5] = system: 5xFAD mice; test: Serum LDL/VLDL and HDL cholesterol; type: in vivo, mouse; conditions: 6-month-old 5xFAD mice, 1 µg/g Evolocumab for 10 weeks vs non-specific human IgG2 control antibody; n = 8–9 per group
Experimental: as §2
Serum VLDL/LDL and HDL cholesterol were separated and concentrations blindly determined using the Cholesterol Assay Kit—HDL and LDL/VLDL (Abcam) according to the manufacturer’s protocol.
Supplementary Fig. 2 Systemic PCSK9 inhibition reduces serum LDL/VLDL and free PCSK9 levels. (A) Serum LDL/VLDL- and (B) HDL-cholesterol levels of 6-months-old 5xFAD mice, treated repetitively with 1 µg/g Evolocumab or non-specific human IgG2 control antibody for ten weeks were assessed via ELISA. […] Levels of immunoprecipitated PCSK9 were evaluated via immunoblot analyses and representatively presented

[6] = biological target: T1, PCSK9 (Mus musculus, UniProt Q80W65); test: Free circulating PCSK9 in serum (immunoprecipitation with crosslinked Evolocumab, immunoblot); type: in vivo; conditions: 6-month-old 5xFAD mice, 1 µg/g Evolocumab for 10 weeks vs non-specific human IgG2 control antibody
T1 construct: substantially decreases the amount of free circulating PCSK9; from tissue; host or cells: serum of 6-month-old 5xFAD mice
T1 sequence (Q80W65 156-694): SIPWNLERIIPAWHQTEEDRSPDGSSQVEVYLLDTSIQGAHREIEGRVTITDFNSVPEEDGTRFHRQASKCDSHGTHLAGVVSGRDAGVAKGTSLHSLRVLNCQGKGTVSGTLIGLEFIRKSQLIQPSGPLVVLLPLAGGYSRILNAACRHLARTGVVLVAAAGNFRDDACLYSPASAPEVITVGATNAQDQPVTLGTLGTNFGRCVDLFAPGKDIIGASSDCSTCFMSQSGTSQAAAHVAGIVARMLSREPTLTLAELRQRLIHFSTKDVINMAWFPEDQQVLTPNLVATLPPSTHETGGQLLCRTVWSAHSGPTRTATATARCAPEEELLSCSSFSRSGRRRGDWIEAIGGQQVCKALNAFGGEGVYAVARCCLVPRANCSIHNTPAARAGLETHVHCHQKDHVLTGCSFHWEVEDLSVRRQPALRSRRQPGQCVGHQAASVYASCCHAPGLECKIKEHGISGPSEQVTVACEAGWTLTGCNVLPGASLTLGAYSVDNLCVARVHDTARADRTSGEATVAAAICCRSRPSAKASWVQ
Experimental: Precleared serum via raw Protein A Agarose (Roche) was diluted in PBS containing an EDTA-free protease inhibitor cocktail and incubated with Protein A Agarose crosslinked to Evolocumab overnight at 4 °C. Beads were washed three times with PBS, followed by elution in 100 mmol/l glycine (pH 2.7) and neutralization with 500 mmol/l tris (pH 8.0).
Supplementary Fig. 2 Systemic PCSK9 inhibition reduces serum LDL/VLDL and free PCSK9 levels. (A) Serum LDL/VLDL- and (B) HDL-cholesterol levels of 6-months-old 5xFAD mice, treated repetitively with 1 µg/g Evolocumab or non-specific human IgG2 control antibody for ten weeks were assessed via ELISA. Data represents mean ± SEM of n = 8 - 9 mice per group. For statistical analyses unpaired two-tailed t-test was used (*p <0.05). (C) Additionally, serum samples were precleared by using raw Protein A Agarose and incubated with Protein A Agarose crosslinked to Evolocumab. Levels of immunoprecipitated PCSK9 were evaluated via immunoblot analyses and representatively presented

[7] = 5xFAD LRP1BE−/− mice, 1 µg/g Alirocumab for 10 weeks vs 0.9% NaCl
[8] = 6-month-old female 5xFAD mice, 1 µg/g Alirocumab i.p. weekly for 10 weeks vs 0.9% NaCl, mean
[9] = 6-month-old 5xFAD mice, 1 µg/g Alirocumab for 10 weeks vs 0.9% NaCl

Row | Molecule | peripheral LRP1 level (liver lysates) [1] | reduction of plaque load, hippocampus ([2]; n = 3–4 per group) | reduction of plaque load, prefrontal cortex ([2]; n = 8 per group) | soluble and insoluble Aβ1–40 and Aβ1–42 levels vs control-treated mice [3, 7] | reduction of insoluble brain Aβ1–40 [3, 8] | reduction of insoluble brain Aβ1–42 [3, 8] | reduction of soluble brain Aβ1–40 [3, 8] | reduction of soluble brain Aβ1–42 [3, 8] | hippocampus-dependent learning capacity (contextual fear) [4, 7] | hippocampus-independent cued fear response ([4]; 5xFAD, 5xFAD LRP1BE−/− and wildtype littermates, PCSK9 inhibition or control, 2 h after contextual test) | contextual fear response (freezing) vs control-treated 5xFAD mice ([4]; 6-month-old 5xFAD mice, 1 µg/g Alirocumab for 10 weeks vs 0.9% NaCl, 24 h post-training) | activity and hyperactivity levels and basal freezing during the conditioning phase [4, 9] | motoric abilities and environmental behavior during the conditioning phase [4, 9] | contextual freezing vs control-treated wildtype littermates ([4]; 6-month-old 5xFAD mice, 1 µg/g Alirocumab for 10 weeks, 24 h post-training) | contextual freezing, treated vs control-treated wildtype animals ([4]; wildtype littermates, 1 µg/g Alirocumab for 10 weeks vs 0.9% NaCl) | serum LDL/VLDL-cholesterol level [5] | free PCSK9 level in serum [6]
1 | Alirocumab: FDA-approved monoclonal anti-PCSK9 antibody (Sanofi) | increases | ~ 23% | ~ 17% | no significant difference | ~ 44% | ~ 38% | ~ 58% | ~ 51% | do not significantly benefit | no significant differences | significant increased | No differences | No differences | no significant difference | did not detect any significant difference |  | 
2 | Evolocumab: FDA-approved monoclonal anti-PCSK9 antibody (Amgen) (antibody, chains of the INN, looked up, V domains shown) VH: EVQLVQSGAEVKKPGASVKVSCKASGYTLTSYGISWVRQAPGQGLEWMGWVSFYNGNTNYAQKLQGRGTMTTDPSTSTAYMELRSLRSDDTAVYYCARGYGMDVWGQGTTVTVSS VL: ESALTQPASVSGSPGQSITISCTGTSSDVGGYNSVSWYQQHPGKAPKLMIYEVSNRPSGVSNRFSGSKSGNTASLTISGLQAEDEADYYCNSYTSTSMVFGGGTKLTVL |  |  |  |  |  |  |  |  |  |  |  |  |  |  |  | reduces | reduces
